Test results from patent US20250177425A1, “SAIKOSAPONIN C AS COMPOSITION FOR TREATING OR PREVENTING AGE-RELATED VASCULAR DISEASES INCLUDING ARTERIOSCLEROSIS” (AGINGTARGET, INC., priority 2022, published 2025).

Assays:
Format in all cases: cell-based, human
HPAEC [1] = assay: SA-β-gal staining, high glucose-induced senescence; settings: 5 μM and 20 μM pretreatment 2 hours, 33 mM high glucose 72 hours, dose-dependent
Protocol: (§1) Similar to Experimental Example 1, a high-fat diet evaluation system at the cellular level was established.
(§2) Specifically, two types of vascular endothelial cells, namely, HUVEC and HPAEC cells, were pretreated with Saikosaponin C at concentrations of 5 μM and 20 μM for 2 hours, and then treated with high glucose at a concentration of 33 mM for 72 hours (for SA-β-gal staining) or 48 hours (for vascular senescence marker protein analysis). Then, the degree of cellular senescence was measured through SA-β-gal staining and measured as the ratio of the total cells to cells stained in blue (SA-β-gal positive). In addition, the expression of vascular senescence marker proteins such as PAI-1, ICAM-1, and VCAM-1 was analyzed.
(§3) Specifically, the senescence of vascular endothelial cells was evaluated by SA-β-gal staining to measure the activity of β-galactosidase, which is an enzyme present in the lysosome, an organelle within the cell (FIG. 3C and FIG. 3D) and this was represented as a graph (FIG. 3A and FIG. 3B). In addition, FIGS. 3E and 3F show the results of Western blotting to determine the expression of vascular senescence marker proteins such as PAI-1, ICAM-1, and VCAM-1 in two types of vascular endothelial cells (HUVEC, HPAEC).

HUVEC [2] = assay: SA-β-gal staining, high glucose-induced senescence; settings: 5 μM and 20 μM pretreatment 2 hours, 33 mM high glucose 72 hours, dose-dependent
Protocol: as §1, §2, §3

[3] = system: PAI-1, ICAM-1, and VCAM-1 in HPAEC; assay: Western blotting of vascular senescence marker proteins; settings: 5 μM and 20 μM pretreatment 2 hours, 33 mM high glucose 48 hours, dose-dependent
Protocol: as §1, §2, §3

[4] = system: PAI-1, ICAM-1, and VCAM-1 in HUVEC; assay: as above; settings: 5 μM and 20 μM pretreatment 2 hours, 33 mM high glucose 48 hours, dose-dependent
Protocol: as §1, §2, §3

HPAEC [5] = assay: Cell cycle analysis by flow cytometry (PI), high glucose-induced G1 phase arrest; settings: 5 μM and 20 μM pretreatment 2 hours, 33 mM high glucose 48 hours, dose-dependent
Protocol: as §1
(§4) Specifically, two types of vascular endothelial cells, namely, HUVEC and HPAEC cells, were pretreated with Saikosaponin C at concentrations of 5 μM and 20 μM for 2 hours, then treated with high glucose (33 mM) for 48 hours, and then immobilized with cold 70% ethanol. The DNA of the immobilized vascular endothelial cells was stained with PI (propidium iodide, 50 μg/ml) solution and the cell cycle was analyzed using a flow cytometer. In addition, the expression of cell cycle regulatory proteins such as p21, p27, and p16 was analyzed after treatment with high glucose (33 mM) for 36 hours.
(§5) Since cellular senescence is closely related to the arrest in the G1 phase of the cell cycle, the cell cycle was evaluated using flow cytometry (FIG. 4A and FIG. 4B). In addition, the expression of p21, p27, and p16 proteins, which are G1 phase growth arrest-inducing proteins, was measured through Western blotting (FIG. 4C, FIG. 4D).

HUVEC [6] = assay: as above; settings: 5 μM and 20 μM pretreatment 2 hours, 33 mM high glucose 48 hours, dose-dependent
Protocol: as §1, §4, §5

HPAEC [7] = assay: Fluorescence image analysis of high glucose-induced ROS generation; settings: 5 μM and 20 μM pretreatment 2 hours, 33 mM high glucose 24 hours, dose-dependent
Protocol: as §1
(§6) Specifically, two types of vascular endothelial cells, namely, HUVEC and HPAEC cells, were pretreated with Saikosaponin C at concentrations of 5 μM and 20 μM for 2 hours, and then treated with high glucose at a concentration of 33 mM for 24 hours. Then, hydrogen peroxide (H2O2) and superoxide anion (O2^⋅−) generated in the cytoplasm and mitochondria were measured using each fluorescent probe. In addition, samples treated with 100 μM hydrogen peroxide (a ROS-inducing agent) for 1 hour and then treated for an additional 23 hours after medium change were used as positive control groups.
(§7) Different analytical reagents were used depending on the type of ROS and the intracellular location where they were generated. Specifically, cytosolic hydrogen peroxide, cytosolic superoxide anion, mitochondrial hydrogen peroxide, and mitochondrial superoxide anion were measured using H2DCFDA (2,7-dichlorodihydrofluorescein diacetate), DHE (dihydroethidium), DHR (dihydrorhodamine 123), and Mito-SOX reagents, respectively. The H2DCFDA (1 μM, 45 min staining), DHE (10 µM, 60 min staining), DHR (20 µM, 30 min staining), and Mito-SOX (5 μM, 10 min staining) were used as ROS-specific fluorescent probes for fluorescence image analysis.

HUVEC [8] = assay: as above; settings: 5 μM and 20 μM pretreatment 2 hours, 33 mM high glucose 24 hours, dose-dependent
Protocol: as §1, §6, §7

## CC1O[C@@H](O[C@@H]2C(CO[C@@H]3OC(CO)[C@@H](O)C(O)C3O)O[C@@H](O[C@H]3CC[C@]4(C)[C@H]5C=C[C@]67OC[C@@]8(CCC(C)(C)C[C@H]86)[C@@H](O)C[C@@]7(C)[C@]5(C)CC[C@H]4C3(C)C)C(O)C2O)C(O)C(O)[C@H]1O (some centres unmarked) [Saikosaponin C]
HPAEC [1]
  high glucose-induced SA-β-gal positive cells: significantly reduced
HUVEC [2]
  high glucose-induced SA-β-gal positive cells: significantly reduced
[3]
  expression of vascular senescence marker proteins PAI-1, ICAM-1, and VCAM-1: reduced
[4]
  expression of vascular senescence marker proteins PAI-1, ICAM-1, and VCAM-1: reduced
HPAEC [5]
  high glucose-induced G1 phase arrest: significantly abolished
HUVEC [6]
  high glucose-induced G1 phase arrest: significantly abolished
HPAEC [7]
  high glucose-induced ROS generation (cytosolic and mitochondrial hydrogen peroxide and superoxide anion): significantly suppressed
HUVEC [8]
  high glucose-induced ROS generation (cytosolic and mitochondrial hydrogen peroxide and superoxide anion): significantly suppressed
